This note sets out measurements from PMC3237907 (Nano letters, 2011).

The target in this assay is T1, ParM mutant (His6/K33A/D63C/T174A/T175N/D224C/C287A), TMR-labelled ADP sensor (Escherichia coli, UniProt P11904, C287A/D224C/D63C/K33A/T174A/T175N).
T1 sequence (P11904 1-320 K33A/D63C/T174A/T175N/D224C/C287A): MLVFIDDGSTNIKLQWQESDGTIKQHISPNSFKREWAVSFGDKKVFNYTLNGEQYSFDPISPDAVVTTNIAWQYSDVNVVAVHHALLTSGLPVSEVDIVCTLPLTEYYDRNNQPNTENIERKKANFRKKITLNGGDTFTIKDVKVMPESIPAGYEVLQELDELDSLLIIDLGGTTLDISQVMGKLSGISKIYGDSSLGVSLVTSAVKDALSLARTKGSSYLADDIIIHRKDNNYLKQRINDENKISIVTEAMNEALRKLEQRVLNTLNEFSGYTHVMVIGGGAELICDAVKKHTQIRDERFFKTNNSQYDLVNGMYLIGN
Kind of assay: single-molecule TIRF, TMR self-quenching. It is filed as binding.

In general, Kd refers to the equilibrium constant for the complex coming apart. High values mean weaker binding, low ones tighter binding. In turn, `Nc1ncnc2c1ncn2[C@@H]1O[C@H](COP(=O)(O)OP(=O)(O)O)[C@@H](O)[C@H]1O` [ADP] returned a dissociation constant (Kd) of 20 ± 3 µM.
